pEC50: −log10 of the molar value. The source made the active and inactive calls. The calls are words filed in the database; no cut-off is given here.
Tests used:
Format in all cases: functional, cell-based
A549 [1] = assay: Growth inhibition of human A549 cells incubated for 6 days in presence of 400 U/ml IFNalpha by MTS assay; details: A549, 144 h
A549 [2] = assay: Growth inhibition of human A549 cells incubated for 6 days in absence of 400 U/ml IFNalpha by MTS assay; details: A549, 144 h
OVCAR-3 [3] = assay: Growth inhibition of human OVCAR3 cells incubated for 7 days in presence of 400 U/ml IFNalpha by MTS assay; details: OVCAR-3, 168 h
OVCAR-3 [4] = assay: Growth inhibition of human OVCAR3 cells incubated for 7 days in absence of 400 U/ml IFNalpha by MTS assay; details: OVCAR-3, 168 h
A549 [5] = assay: Increase in DR5 protein expression in human A549 cells at 14 uM incubated for 4 days in absence of 200 U/ml IFNalpha by Western blot analysis
A549 [6] = assay: Increase in DR5 protein expression in human A549 cells at 14 uM incubated for 4 days in presence of 200 U/ml IFNalpha by Western blot analysis
A549 [7] = assay: Induction of apoptosis in human A549 cells assessed as increase in PARP cleavage at 14 uM incubated for 4 days in presence of 200 U/ml IFNalpha by Western blot analysis
A549 [8] = assay: Growth inhibition of human A549 cells at 14 uM incubated for 4 days in presence of 200 U/ml IFNalpha and 30 nM 14-3-3zeta siRNA by MTS assay
A549 [9] = assay: Growth inhibition of human A549 cells at 14 uM incubated for 4 days in presence of 200 U/ml IFNalpha and in absence of 30 nM 14-3-3zeta siRNA by MTS assay
A549 [10] = assay: Increase in DR5 protein expression in human A549 cells at 13 uM incubated for 4 days in absence of 200 U/ml IFNalpha by Western blot analysis
A549 [11] = assay: Increase in DR5 protein expression in human A549 cells at 13 uM incubated for 4 days in presence of 200 U/ml IFNalpha by Western blot analysis
A549 [12] = assay: Induction of apoptosis in human A549 cells assessed as increase in PARP cleavage at 13 uM incubated for 4 days in absence of 200 U/ml IFNalpha by Western blot analysis
A549 [13] = assay: Induction of apoptosis in human A549 cells assessed as increase in PARP cleavage at 13 uM incubated for 4 days in presence of 200 U/ml IFNalpha by Western blot analysis
A549 [14] = assay: Growth inhibition of human A549 cells at 13 uM incubated for 4 days in presence of 200 U/ml IFNalpha and 30 nM 14-3-3zeta siRNA by MTS assay
A549 [15] = assay: Growth inhibition of human A549 cells at 13 uM incubated for 4 days in presence of 200 U/ml IFNalpha and in absence of 30 nM 14-3-3zeta siRNA by MTS assay
A549 [16] = assay: Induction of apoptosis in human A549 cells assessed as increase in PARP cleavage at 14 uM incubated for 4 days in absence of 200 U/ml IFNalpha by Western blot analysis

Row | pEC50 (A549 [1]) | pEC50 (A549 [2]) | pEC50 (OVCAR-3 [3]) | pEC50 (OVCAR-3 [4]) | SMILES | Activity (A549 [5]) | Activity (A549 [6]) | Activity (A549 [7]) | growth inhibition (GI) (A549 [8]) | growth inhibition (GI) (A549 [9]) | Activity (A549 [10]) | Activity (A549 [11]) | Activity (A549 [12]) | Activity (A549 [13]) | growth inhibition (GI) (A549 [14]) | growth inhibition (GI) (A549 [15]) | Activity (A549 [16])
1 | < 4.40 | 3.77 | < 4.40 | 3.85 | COC[C@@]1(OC)CC[C@@H]2/C1=C\[C@@]1(C)CCC(C(C)C)=C1[C@@H](O[C@H]1O[C@@H]3COC(C)(C)O[C@H]3[C@H](O)[C@H]1O)[C@H](O)[C@@H]2C |  |  |  |  |  |  |  |  |  |  |  | 
2 | 4.96 | < 3.70 | 5.48 | < 3.70 | COC[C@@]1(O)CC[C@@H]2/C1=C\[C@@]1(C)CCC(C(C)C)=C1[C@@H](O[C@H]1O[C@@H]3COC(C)(C)O[C@H]3[C@H](O)[C@H]1O)[C@H](O)[C@@H]2C | Active | Active | Active | inactive | Active |  |  |  |  |  |  | 
3 | 4.57 | 4.48 | 4.74 | 4.54 | COC[C@H]1CC[C@@H]2/C1=C\[C@@]1(C)CCC(C(C)C)=C1[C@@H](O[C@H]1O[C@@H]3COC(C)(C)O[C@H]3[C@H](O)[C@H]1O)[C@H](O)[C@@H]2C |  |  |  |  |  |  |  |  |  |  |  | inactive

Row | SMILES | pEC50 (A549 [1]) | pEC50 (A549 [2]) | pEC50 (OVCAR-3 [3]) | pEC50 (OVCAR-3 [4]) | Activity (A549 [5]) | Activity (A549 [6]) | Activity (A549 [7]) | growth inhibition (GI) (A549 [8]) | growth inhibition (GI) (A549 [9]) | Activity (A549 [10]) | Activity (A549 [11]) | Activity (A549 [12]) | Activity (A549 [13]) | growth inhibition (GI) (A549 [14]) | growth inhibition (GI) (A549 [15]) | Activity (A549 [16])
4 | COC[C@H]1O[C@H](O[C@@H]2C3=C(C(C)C)CC[C@]3(C)/C=C3\[C@@H](CC[C@]3(O)COC)[C@@H](C)[C@H]2O)[C@H](O)[C@H]2O[C@H]3O[C@]21O[C@@]3(C)[C@@H]1CO1 | 4.77 | 3.90 | 5.34 | 4.40 |  |  |  |  |  | Active | Active | inactive | Active | inactive | Active | 
